Results on 1 compound are retold here after patent US6984656B2, “Core modified porphyrins” (priority 2001, dated 2006).

For one data set, the system named is MCF-7 cells. Nature of the data set: Photosensitizer uptake in cultured MCF-7 cells by fluorescence. The conditions noted are these: 10 μM and 100 μM, 24 h. Format: cell-based. On the procedure: To establish baseline fluorescence, control cells incubated with MEM not containing either photosensitizer were used. […] A time course to determine when the fluorescence approached its maximum was performed for DH-82 and Photofrin®.
To determine the final intracellular concentrations of each sensitizer, cells in 96-well plates were incubated with sensitizer for 24 h. Detection of fluorescence in sensitizer-treated cells was made directly in the wells of the 96-well plate using the appropriate excitation and emission wavelengths.
Photosensitizer uptake experiments are conducted with fluorescent sensitizers. First, cells will be removed from 100-mm dishes by trypsinization (see above) and seeded on 96-well plates at 5×10^4 cells/well in 200 μL of MEM. […] To establish baseline fluorescence, control cells incubated with MEM not containing any photosensitizer are used. […] Fluorescence of the cells is determined using a Spectramax Gemini spectrofluorimeter (Molecular Devices, Sunnyvale, Calif.). Sensitizers will be compared according to the rate at which the fluorescence approached its maximum final emission per 10^5 cells as well as by the final sensitizer concentrations in cells. The fluorescence values calculated for 10^5 cells will be compared to a standard curve of fluorescence obtained from known concentrations of each sensitizer.

Data set [1] concerns R3230AC rat mammary adenocarcinoma cells. Briefly: Phototoxicity toward R3230AC cells in culture. Format: cell-based. The conditions noted are these: 10 μM, 24 h; 570-800 nm light, 0.9 J cm^−2; 24 h post-irradiation. On the procedure: Similar results were obtained with R3230AC rat mammary adenocarcinoma cells in vitro. […] Light-treated cells and dark controls were incubated for 24 h and cell survival was determined. The surviving fraction, 24 h post-irradiation, is shown graphically in FIG. 4c.

A short description of data set [2]: Tissue distribution by fluorescence in tumor-bearing BALB/c mice. On the procedure:
At various times after sensitizer administration, animals were sacrificed and sensitizer levels determined by direct extraction. In tumor-bearing animals (BALB/c mice or female Fischer rats), the concentration of sensitizer was determined by fluorescence spectroscopy where possible. At various time points post-injection of 5 μmol/kg of sensitizer or 90% of the LD10 (whichever is smaller), tissues were removed, weighed, homogenized, and frozen in liquid nitrogen (3-5 animals per time point). The homogenate, after thawing, was taken up in Solvable and the emission from sensitizer was quantified in terms of ng of sensitizer/mg of protein. With non-fluorescent sensitizers, sensitizer content was quantified spectrophotometrically. Distribution ratios were expressed as the uptake or retention of sensitizer in tumor relative to various normal tissues. Intensified digital fluorescence microscopy and/or confocal microscopy on frozen sections of the tumors, which were prepared from samples specified for this purpose, enabled us to assess intratumor sensitizer distributions.

Data set [3] is described as follows: Quantum yield for the generation of singlet oxygen. Format: physicochemical. The conditions noted are these: aqueous solution.
The next data set has as its system BALB/c mice. Nature of the data set: Preliminary toxicity, single intravenous injection in BALB/c mice.
[4] abbreviates: BALB/c mice with Colo-26 tumors, DH-82 5 mg/kg, MA-99 2.5 mg/kg.

Structures are written as SMILES.

Consider `O=C([O-])COc1ccc(-c2c3nc(c(-c4ccc(F)cc4)c4ccc(s4)c(-c4ccc(F)cc4)c4nc(c(-c5ccc(OCC(=O)[O-])cc5)c5ccc2s5)C=C4)C=C3)cc1.[Na+].[Na+]` [MA-99], for which the “final intracellular concentration relative to that for DH-82” value in the data set on MCF-7 cells is on record as “approximately 80%”. For the same compound, in data set [1], the “phototoxicity relative to Photofrin® toward R3230AC cells (surviving fraction, FIG. 4c)” value was “more phototoxic than Photofrin®”. The “concentration in tumor 24 h post-injection” value in data set [2] (2.5 mg (3.2 μmol)/kg of MA-99, Colo-26 tumors) is 0.65±0.10 μg/mg of protein. In data set [2] (24 h post-injection), the “increase in photosensitizer uptake in tumor relative to compound 6” value is listed as “greater than twenty-fold increase”. In addition, in data set [2] (setting [4]), the “concentration in skin at 1 h post-injection” value is on record as 0.09±0.04 μg/mg of protein and the “concentration in skin at 24 h post-injection” value was 0.01±0.01 μg/mg of protein. Further, in data set [2] (liver, kidney, lung, heart, spleen, muscle, skin), the “concentration in tumor versus other tissues at 24 h post-injection” value is listed as “higher in the tumor than in the other tissues examined”. For the same compound, in data set [3], the “quantum yield for the generation of singlet oxygen φ(^1O2)” value amounted to 0.71 ± 0.02. In the data set with BALB/c mice (10 mg/kg i.v., after 90 days), the “gross abnormalities in organs and tissues after sacrifice” value is “no gross abnormalities were noted”. Besides, the toxicity and morbidity result with BALB/c mice (10 mg/kg, followed 90 days post-injection, normal vivarium light) was “neither toxicity nor morbidity was observed”.
